Measured values taken from patent US5177082A, “Huperzines and analogs” (priority 1990, dated 1993).
Read-outs that look alike come from different tables or passages of the source.

How the values were obtained:
pseudocholinesterase = biological target: T1, pseudocholinesterase (Rattus norvegicus, UniProt Q9JKC1); assay: biochemical
T1 construct: 0.1 ml of rat blood serum; from tissue; host or cells: rat blood serum
Description: (§1) Red blood cell membranes of rats were used as the source for the true cholinesterase with a substrate concentration of 0.3 mM of S-acetylthiocholine iodide. The source for pseudocholinesterase was 0.1 ml of rat blood serum and the substrate was 0.4 mM S-butyrylthiocholine iodide. The Ellman colorimetric method was used to measure the enzyme activity. The percentage of enzyme activity remaining was plotted against negative logarithm (pI) of the drug concentration and the pI50 (the negative logarithm of the gram molecule concentration of the drug required to inhibit the enzyme activity 50%) was derived.

true cholinesterase = true cholinesterase (Rattus norvegicus, UniProt P37136); assay: biochemical; parameters: Red blood cell membranes of rats; from tissue; host or cells: rat red blood cell membranes
Description: as §1

[1] = test system: In Vitro Rat Nerve/Diaphragm Muscle Contraction; assay: In vitro phrenic nerve/diaphragm preparations of rats, enhancement of muscle contraction; settings: for EC50: read-out: Enhancement of Muscle Contraction Amplitude, 50% Concentration; for Strength of Effect: relative to Huperzine A = 1.00
Description: 1. In Vitro Phrenic Nerve/Diaphragm Preparations of Rats.
After the fast decapitation of a rat, the thoracic cavity was opened and the right diaphragm with attached phrenic nerve was removed. After placing it in a Tyrode's solution (37° C. constant temperature), gassed with 95% oxygen+5% CO2, electrical stimulation (1-10 V, 0.5 ms, 1 c/10 s) of the phrenic nerve was used to produce muscle contraction. A transducer was used to record the contraction amplitude on a panel recorder. […].

[2] = test system: Sciatic Nerve/Tibialis Muscle Preparation; assay: Anesthetized rat sciatic nerve/tibialis muscle preparation; assay type: in vivo; settings: for minimal effective dose: Rattus norvegicus, iv, read-out: Lowest Effective Dosage for Enhancing Muscle Contraction
Description: (§3) Anesthesized Rat and Rabbit Sciatic Nerve/Tibialis Muscle Preparation
(§4) Anesthesia was produced in rats by ip injections of 30 mg/kg of pentobarbital and in rabbits by iv injections of 1 g/kg of urethane. Electric stimulation of the periphery of the sciatic nerve (5-10 V, 0.5 ms, 1 c/10 s) caused tibialis contraction which was recorded on smoked paper.

[3] = test system: Sciatic Nerve/Tibialis Muscle Preparation; assay: Anesthetized rabbit sciatic nerve/tibialis muscle preparation; assay type: in vivo; settings: rabbits; for minimal effective dose: Oryctolagus cuniculus, iv, read-out: Lowest Effective Dosage for Enhancing Muscle Contraction
Description: as §3, §4

Mice = settings: mouse, in vivo
Rats = settings: rat, in vivo
in vivo [4] = settings: mouse, ip
in vivo [5] = settings: rat, ip
myasthenia gravis = assay: Double blind cross-over comparison of Huperzine A and neostigmine, 69 cases of myasthenia gravis; assay type: in vivo, human
From the text: (§2) Patients affected with myasthenia gravis (MG) with typical clinical symptoms which improved after using neostigmine were the subjects for testing and verification. […] The injections were all given in the morning and on the morning prior to the injections anticholinesterase drugs were discontinued. Neither the patients nor the doctors knew which drug was being injected. Later, the symptoms, the duration of the improvements, if any, which were obtained by the drugs and the side effects were recorded.
(1) Comparison of the maintained times of the effects.

patients = assay: Clinical side effects in patients with myasthenia gravis; assay type: in vivo, human
Description: as §2, with “verification. […] It was generally used for at least ten days and each dosage was 0.4-0.5 mg.” for “verification.”, “recorded. Based on these factors, the relative merits of the two drugs were established.” for “recorded.”

TA100 = assay: Mutation test (Ames) TA100 + S9; settings: 1500 μg/container
memory functions of rats = assay: Memory function of preconditioned rats after 48 hours; assay type: in vivo, rat; settings: 0.15 mg/kg, after 48 hours
Description: To evaluate the impact on the memory function, preconditioned animals going through 5 shock-free runs were used as learned animals. After 48 hours the drug-free (control) animals required 14.4±8.9 shocks to become learned.

[6] = test system: learning functions of rats; assay: Y maze conditioned reflex test, learning process of rats; settings: 0.08 mg/kg, iv
From the text: Each animal was required to go through 10 successive shock-free runs to be classified as learned.

[7] = 0.4 mM S-butyrylthiocholine iodide, read-out: Inhibition of Cholinesterase (pI50), Blood serum (converted)
[8] = in vitro rat phrenic nerve/diaphragm, 37° C.
[9] = 0.3 mM S-acetylthiocholine iodide, read-out: Inhibition of Cholinesterase (pI50), Red Blood Cells (converted)

T1 sequence (Q9JKC1 24-597): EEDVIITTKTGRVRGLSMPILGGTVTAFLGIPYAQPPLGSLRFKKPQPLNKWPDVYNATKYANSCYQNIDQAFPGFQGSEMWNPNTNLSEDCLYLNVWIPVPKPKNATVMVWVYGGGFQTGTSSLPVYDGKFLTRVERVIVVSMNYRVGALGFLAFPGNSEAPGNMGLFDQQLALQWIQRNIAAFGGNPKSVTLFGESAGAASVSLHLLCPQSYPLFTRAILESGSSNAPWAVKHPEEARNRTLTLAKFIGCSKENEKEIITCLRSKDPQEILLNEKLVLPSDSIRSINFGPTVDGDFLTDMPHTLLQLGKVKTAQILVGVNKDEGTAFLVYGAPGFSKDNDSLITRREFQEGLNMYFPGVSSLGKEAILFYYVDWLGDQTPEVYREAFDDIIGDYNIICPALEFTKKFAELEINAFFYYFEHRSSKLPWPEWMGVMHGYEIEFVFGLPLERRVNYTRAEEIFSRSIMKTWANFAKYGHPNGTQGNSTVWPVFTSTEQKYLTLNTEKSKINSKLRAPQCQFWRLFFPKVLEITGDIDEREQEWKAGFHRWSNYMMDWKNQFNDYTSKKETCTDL
Sequence of true cholinesterase (P37136-2 with tags, fused parts or gaps limits assumed): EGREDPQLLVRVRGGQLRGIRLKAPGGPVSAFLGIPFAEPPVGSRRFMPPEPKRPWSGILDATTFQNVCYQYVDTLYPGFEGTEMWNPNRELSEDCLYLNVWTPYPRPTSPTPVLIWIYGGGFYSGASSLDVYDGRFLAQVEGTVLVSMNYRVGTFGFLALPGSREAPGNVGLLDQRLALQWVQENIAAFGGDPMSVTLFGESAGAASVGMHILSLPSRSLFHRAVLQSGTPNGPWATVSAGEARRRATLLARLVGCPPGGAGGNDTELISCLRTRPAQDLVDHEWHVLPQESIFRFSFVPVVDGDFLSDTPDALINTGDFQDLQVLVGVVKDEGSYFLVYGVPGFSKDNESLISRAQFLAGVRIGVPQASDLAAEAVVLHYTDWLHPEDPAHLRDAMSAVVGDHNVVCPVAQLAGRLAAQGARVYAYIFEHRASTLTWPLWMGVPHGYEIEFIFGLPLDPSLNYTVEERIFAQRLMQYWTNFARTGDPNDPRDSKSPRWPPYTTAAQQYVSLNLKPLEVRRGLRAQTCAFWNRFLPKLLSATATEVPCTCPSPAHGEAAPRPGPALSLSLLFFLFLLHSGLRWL

CCC1[C@H]2C=C(C)C[C@]1(N)c1ccc(=O)[nH]c1C2 (stereo partly drawn) [11,12-dihydro-huperzine A, (5R, 9R)-5-amino-11-ethyl-5,6,9,10-tetrahydro-7-methyl-5,9-methanocycloocta[b]pyridin-2(1H)-one]
IC50 (pseudocholinesterase; [7]): 12.6 µM | IC50 (true cholinesterase): 0.631 µM

CC1=C[C@H]2Cc3[nH]c(=O)ccc3[C@]3(C1)NCCC[C@H]23 [Huperzine B, (4aR, 5R, 10bR)-1,2,3,4,4a,5,6,10b-octahydro-12-methyl-5,10b-propeno-1,7-phenanthrolin-8(7H)-one]
EC50 ([1]; Rattus norvegicus): 4.8 µM | Strength of Effect [1]: 0.09 | IC50 (pseudocholinesterase): 200 µM | IC50 (true cholinesterase): 0.501 µM

C/C=C1\[C@H]2C=C(C)C[C@]1(N(C)C)c1ccc(=O)[nH]c1C2 [N-dimethyl huperzine A, (5R, 9R, 11E)-11-ethylidene-5,6,9,10-tetrahydro-7-methyl-5-(dimethylamino)-5,9-methanocycloocta[b]pyridin-2(1H)-one]
Inhibition of Cholinesterase, Blood serum (concentration found ineffective) (pseudocholinesterase; 0.4 mM S-butyrylthiocholine iodide): 1.2 × 10^-2 M ineffective | IC50 (true cholinesterase): 158 µM

COc1ccc2c3c1O[C@H]1C[C@@H](O)C=C[C@@]31CCN(C)C2 [Galanthamine, reference compound]
EC50 [1, 8]: 4.2 µM | Strength of Effect [1]: 0.10 | minimal effective dose [2]: 0.5 mg/kg | Strength of Effect ([2]; rat, in vivo): 1.0 | minimal effective dose [3]: 0.5 mg/kg | Strength of Effect ([3]; galanthamine = 1.0): 1.0 | Inhibition of Cholinesterase (pI50), Blood serum (pseudocholinesterase): 4.9 | Toxic Strength (Mice): 0.13 | Toxic Strength (Rats): 1.22 | LD50 (in vivo [4]): 13.4 mg/kg | LD50 (in vivo [5]): 22.9 mg/kg

CCC1[C@H]2Cc3[nH]c(=O)ccc3[C@@]1(N)CC(C)C2 (stereo partly drawn) [tetrahydro-huperzine A, (5R, 9R)-5-amino-11-ethyl-5,6,7,8,9,10-hexahydro-7-methyl-5,9-methanocycloocta[b]pyridin-2(1H)-one]
IC50 (pseudocholinesterase; [7]): 50.1 µM | IC50 (true cholinesterase; [9]): 2.51 µM

CN(C)C(=O)Oc1cccc([N+](C)(C)C)c1 [Neostigmine, reference compound]
EC50 ([1]; Rattus norvegicus): 0.272 µM | Strength of Effect [1]: 1.61 | IC50 (pseudocholinesterase; [7]): 3.55 µM | action time of neostigmine longer than Huperzine A, % (myasthenia gravis): 8.69% | action time of neostigmine longer than Huperzine A, cases (myasthenia gravis): 6 cases | Abdominal pains, % (patients; control group): 7.4% | Abdominal pains, number of times (patients; control group): 26 | Blurred vision, % (patients; control group): 9.7% | Blurred vision, number of times (patients; control group): 24 | Dizziness, % (patients; control group): 19.5% | Dizziness, number of times (patients; control group): 68 | Drooling, % (patients; control group): 1.2% | Drooling, number of times (patients; control group): 11 | Increase in the number of bowel movements, % (patients; control group): 2.0% | Increase in the number of bowel movements, number of times (patients; control group): 7 | Muscle bundle quivering, % (patients; control group): 8.3% | Muscle bundle quivering, number of times (patients; control group): 29 | Myosis, % (patients; control group): 3.4% | Myosis, number of times (patients; control group): 12 | Nausea, % (patients; control group): 4.3% | Nausea, number of times (patients; control group): 15 | Perspiring, % (patients; control group): 12.1% | Perspiring, number of times (patients; control group): 43 | Tinnitus, % (patients; control group): 4.0% | Tinnitus, number of times (patients; control group): 14 | Vomiting, % (patients; control group): 1.2% | Vomiting, number of times (patients; control group): 6 | cases with side effects (patients; control patients, 69 cases): 34 cases | cases with side effects, % (patients; control patients, 69 cases, X^2 =3.58, P>0.05): 49.27% | perspiring and blurred vision vs Huperzine A (patients; perspiring X^2 =5.5, P<0.01, blurred vision X^2 =12.96, P<0.001): more noticeably than Hyperzine A caused perspiring and blurred vision | IC50 (true cholinesterase; [9]): 0.224 µM

Tubocurarine [reference compound]
block of electrically induced muscle contraction ([2]; tubocurarine 0.3 mg/kg iv, species not separated (rats/rabbits)): completely blocked the electrically induced muscle contraction

O=P1(N(CCCl)CCCl)NCCCO1 (stereo not shown) [Cyclophosphamide]
reverse mutation colonies, TA100 + S9 (TA100): 566 ± 10

CNC(=O)Oc1ccc2c(c1)[C@]1(C)CCN(C)[C@@H]1N2C [Physostigmine, reference compound]
EC50 [1, 8]: 0.245 µM | Strength of Effect [1]: 1.79 | minimal effective dose ([2]; rats): 0.05 mg/kg | Strength of Effect ([2]; rats, physostigmine = 1.0): 1.0 | minimal effective dose [3]: 0.12 mg/kg | effect on electrically stimulated muscle contraction ([3]; iv (Huperzine A 30 μg/kg)): enhanced the rabbit's tibialis muscle contraction amplitude but to a lesser degree than that observed for the rats | Strength of Effect ([3]; physostigmine = 1.0): 1.0 | shocks required to achieve the learned state (memory) (memory functions of rats): 6.4±3.7 shocks | IC50 (pseudocholinesterase): 1.12 µM | Toxic Strength (Mice): 2.25 | Toxic Strength (Rats): 2.08 | LD50 (in vivo [4]): 0.8 mg/kg | LD50 (in vivo [5]): 2.4 mg/kg | shocks accepted before achieving the learned state (learning) [6]: 7.9±3.5 shocks

CC1=C[C@H]2Cc3[nH]c(=O)ccc3[C@@]3(C1)[C@@H]2CCCN3C [N-methyl huperzine B, (4aR, 5R, 10bR)-1,2,3,4,4a,5,6,10b-octahydro-1,12-dimethyl-5,10b-propeno-1,7-phenanthrolin-8(7H)-one]
IC50 (pseudocholinesterase; [7]): 316 µM

C/C=C1\[C@H]2C=C(C)C[C@]1(NC(C)=O)c1ccc(=O)[nH]c1C2 [N-acetyl huperzine A, (5R, 9R, 11E)-5-(acetylamino)-11-ethylidene-5,6,9,10-tetrahydro-7-methyl-5,9-methanocycloocta[b]pyridin-2(1H)-one]
Inhibition of Cholinesterase, Blood serum (concentration found ineffective) (pseudocholinesterase): 1.1 × 10^-2 M ineffective | IC50 (true cholinesterase; [9]): > 3160 µM

C/C=C1\[C@H]2C=C(C)C[C@]1(N(C)C)c1ccc(=O)n(C)c1C2 [N-trimethyl-huperzine A, (5R, 9R, 11E)-11-ethylidene-5,6,9,10-tetrahydro-1,7-dimethyl-5-(dimethylamino)-5,9-methanocycloocta[b]pyridin-2(1H)-one]
Inhibition of Cholinesterase, Blood serum (concentration found ineffective) (pseudocholinesterase): 1.1 × 10^-2 M ineffective | IC50 (true cholinesterase; [9]): 316 µM
